From the NIST ThermoML archive (doi:10.1021/je700693z)
± gives the expanded uncertainty stated by the source.

Columns and labels:
[1] = for mass density: 298.15 K, 101.33 kPa, Liquid, Vibrating tube method
[2] = Molar enthalpy of transition or fusion; settings: Crystal; DSC

Row | SMILES | mass density [1] | Glass transition temperature ([1]; DTA) | Normal melting temperature ([1]; Crystal, DTA) | Molar enthalpy of transition or fusion [2]
1 | CCCC[n+]1ccn(CC)c1.O=S(=O)([N-]S(=O)(=O)C(F)(F)F)C(F)(F)F | 1401.8 ± 14 kg/m3 | -92.2 ± 3 °C |  | 
2 | CCn1cc[n+](CC)c1.O=S(=O)([N-]S(=O)(=O)C(F)(F)F)C(F)(F)F [1,3-diethylimidazolium bis[(trifluoromethyl)sulfonyl]imide] | 1476 ± 15 kg/m3 | -67.2 ± 3 °C | -10.5 ± 0.4 °C | 4.88 ± 0.191 kcal/mol
3 | CCCC[n+]1ccn(CC)c1.F[P-](F)(F)(F)(F)F [1-butyl-3-ethylimidazolium hexafluorophosphate] | 1327.6 ± 12 kg/m3 | -80.2 ± 3 °C |  | 
4 | CCCCCCn1cc[n+](CC)c1.O=S(=O)([N-]S(=O)(=O)C(F)(F)F)C(F)(F)F [1-hexyl-3-ethylimidazolium bis(trifluoromethylsulfonyl)imide] | 1345.4 ± 13 kg/m3 | -88.3 ± 3 °C |  | 
